Assay results as given in publication PMC5589570, “The antigenic identity of human class I MHC phosphopeptides is critically dependent upon phosphorylation status” (Oncotarget, 2017).
pKd: −log10 of the molar value. Read-outs that look alike come from different tables or passages of the source. Square brackets hold non-standard residues; d marks the D form. Ends that are not written are not given here. Peptide text beside a SMILES is read from it. pS = N[C@@H](COP(=O)(O)O)C(=O)O

Legend:
HLA-A2 [1] = biological target: T1, HLA-A2 (Homo sapiens, UniProt P04439, D140Y/D185E/D98H/E176V/E277Q/G131W/G231S/I119V/I121R/I166T/I218V/L300P/L318F/N151K/N90K/P208A/P217A/Q86G/Q94H/R138H/R169H/T345S); test: Competitive peptide-MHC affinity assay (displacement of radiolabeled peptide); conditions: competitive binding, IC50 of displacement of radiolabeled peptide taken as approximation of Kd; 100,000-fold concentration range, each concentration in triplicate; W6/32 capture; read-out: Kd (pMHC affinity for HLA-A2)
T1 construct: made in house
Experimental: HLA-A2 heavy chain was expressed in E. coli, refolded with β2M and the peptide […], and purified as described above. Competitive peptide binding assays were carried out as described. Test peptide concentrations covered a 100,000-fold range, with each concentration assayed in triplicate. MHC-peptide complexes were captured on microplates coated with monoclonal antibody W6/32 (to human HLA) and washed, and radioactivity quantified with a microscintillation counter. The concentration of test peptide that displaced 50% of the radiolabeled peptide (IC50) was calculated. In these conditions (in which the concentration of the label is less than the concentration of MHC and the IC50 is greater than or equal to the concentration of MHC), the IC50 is a reasonable approximation of the dissociation constant.

TCRpCDC25b = test: SPR (BIAcore) TCR/peptide-MHC binding, HLA-A2-peptide complex injected over immobilised TCR; set-up: species or system mice; conditions: for specific binding of HLA-A2-peptide complex to immobilised TCRpCDC25b: responses compared with control surfaces (LDN5 and streptavidin), Figure 7A
Description: Having established that phosphorylation has diverse effects on epitope structure, we aimed to test whether a phosphorylated epitope could be distinguished from its unmodified counterpart by the TCR. We previously generated phosphopeptide-specific CD8^+ T cells by immunising mice expressing a transgenic recombinant HLA-A*0201 molecule (AAD) with activated bone-marrow-derived dendritic cells pulsed with synthetic phosphopeptides corresponding to those naturally presented on the surface of human tumour cell lines. Despite the ability to isolate functional phosphopeptide specific T-cells, attempts to generate clonal populations of RQA_V specific T-cells for TCR isolation or produce soluble TCRs of sufficient quality from T-cell clones specific for PKD and RQI were unsuccessful. However we were able to generate soluble TCR (termed TCRpCDC25b) using cDNA sequences isolated from a T cell clone that recognised a phosphopeptide epitope derived from the CDC25b protein (GLLGpSPVRA, subsequently termed GLLGpS) of sufficient quality for surface plasmon resonance analysis.
To investigate if recognition was dependent on the GLLGS amino acid sequence, we also tested binding of immobilised TCRpCDC25b to HLA-A2 containing a different phosphopeptide featuring a p-Ser at position 5 (SLLTpSPPKA (termed SLLTpS) derived from Thyroid hormone receptor interacting protein 12). […] We then measured the strength of TCRpCDC25b phosphopeptide recognition by equilibrium affinity analysis, repeating injections of HLA-A2-GLLGpS over a range of concentrations (Figure 7B). […] In both orientations, the presence of low-level protein aggregates was evident at higher concentrations.
Experiments utilised a BIAcore 3000 and HBS-EP buffer, at a flow rate of 10 μl.min^−1. For HLA-peptide injections, recombinant TCRs were produced in the Drosophila expression system incorporating C-terminal biotinylation tags, biotinylated in vitro using BirA, and immobilised to streptavidin-coated CM5 surfaces. […] Data were analysed using BIAevaluation 3.1 and Origin graphing software.

HLA-A2 [2] = biological target: T1, HLA-A2; set-up: method as in PMID 18836451; conditions: binding of peptide to HLA-A2, modified vs unmodified form; read-out: Kd (pMHC affinity for HLA-A2); cited from earlier work

Row | pKd (HLA-A2 [1]) | Molecule | also measured
1 | 7.59 | CC[C@H](C)[C@H](NC(=O)[C@H](CO)NC(=O)[C@H](C)NC(=O)[C@H](CCC(N)=O)NC(=O)[C@@H](N)CCCNC(=N)N)C(=O)N[C@@H](CCC(=O)O)C(=O)N[C@@H](CC(C)C)C(=O)N1CCC[C@H]1C(=O)N[C@@H](CO)C(=O)N[C@@H](CCSC)C(=O)N[C@@H](C)C(=O)N[C@H](C(=O)O)C(C)C [RQA_Vnp] | –
2 | 7.22 | CC[C@H](C)[C@H](NC(=O)[C@H](COP(=O)(O)O)NC(=O)[C@H](C)NC(=O)[C@H](CCC(N)=O)NC(=O)[C@@H](N)CCCNC(=N)N)C(=O)N[C@@H](CCC(=O)O)C(=O)N[C@@H](CC(C)C)C(=O)N1CCC[C@H]1C(=O)N[C@@H](CO)C(=O)N[C@@H](CCSC)C(=O)N[C@@H](C)C(=O)N[C@H](C(=O)O)C(C)C [RQA_Vp] | –
3 | 7.59 | CC[C@H](C)[C@H](NC(=O)[C@H](CCC(N)=O)NC(=O)[C@@H](N)CCCNC(=N)N)C(=O)N[C@@H](COP(=O)(O)O)C(=O)N[C@@H](CCC(N)=O)C(=O)N[C@@H](CC(=O)O)C(=O)N[C@H](C(=O)N[C@@H](CCCCN)C(=O)N[C@@H](CC(C)C)C(=O)O)C(C)C [RQIp] (H-RQI[pS]QDVKL-OH) | –
4 | – | GLLGpSPVRA | specific binding of HLA-A2-peptide complex to immobilised TCRpCDC25b (TCRpCDC25b): specific binding; pKd (TCRpCDC25b; two independent equilibrium analyses, once in either orientation, Scatchard analyses and hyperbolic fitting, read-out: Kd values from both orientations (range)): 4.39 to 4.46
5 | – | RQApSLSISV [PKD2p, canonical phosphopeptide antigen derived from Protein Kinase D2] | pKd (HLA-A2 [2]): 7.41
6 | 5.72 | RQISQDVKL [RQInp] | –
7 | – | SLLTpSPPKA [reference compound] | specific binding of HLA-A2-peptide complex to immobilised TCRpCDC25b (TCRpCDC25b): identical responses over TCRpCDC25b and control surfaces
